Values of other authors in patent US20230405009A1, “METHODS FOR TREATING HEMATOLOGIC MALIGNANCIES WITH AMINO-PYRROLOPYRIMIDINONE COMPOUNDS” (Merck Sharp & Dohme LLC, priority 2020, published 2023).

How the values were obtained:
CLL mouse models = conditions: Reiff et al. Cancer Discovery 2018
DLBCL mouse models = conditions: Reiff et al. Cancer Discovery 2018

Compound: O=C(c1ccc(Oc2ccccc2)cc1Cl)c1c[nH]c2ncnc(N[C@@H]3CC[C@@H](CO)OC3)c12 [Compound A]
- efficacy compared with ibrutinib in CLL mouse models (CLL mouse models): superiority over ibrutinib
- efficacy compared with ibrutinib in DLBCL mouse models (DLBCL mouse models): superiority over ibrutinib
